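Tested at 5 concentrations; 48 h exposure; 96-well plates; endpoints linearly interpolated, else capped at highest concentration. GI50 is the concentration that inhibits growth by half.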 Calls of active or inactive are those of the source. No stated cut-off is given here; in the data, active = GI50 up to about 1.1 µM and inactive = higher.
Tests used:
Experiment in all cases: DTP human tumour cell line panel, 48 h
[1] = tested on: 786-0
[2] = tested on: A498
[3] = tested on: A549
[4] = tested on: ACHN
[5] = tested on: BT-549
[6] = tested on: CAKI-1
[7] = tested on: CCRF-CEM
[8] = tested on: COLO 205
[9] = tested on: DU-145
[10] = tested on: EKVX
[11] = tested on: HCC 2998
[12] = tested on: HCT-116
[13] = tested on: HCT-15
[14] = tested on: HL-60
[15] = tested on: HOP-62
[16] = tested on: HOP-92
[17] = tested on: HT-29
[18] = tested on: Hs-578T
[19] = tested on: IGROV-1
[20] = tested on: K562
[21] = tested on: KM12
[22] = tested on: LOX IMVI
[23] = tested on: M14
[24] = tested on: MCF7
[25] = tested on: MDA-MB-231
[26] = tested on: MDA-MB-435
[27] = tested on: MDA-N
[28] = tested on: MOLT-4
[29] = tested on: Malme-3M
[30] = tested on: NCI-H226
[31] = tested on: NCI-H23
[32] = tested on: NCI-H460
[33] = tested on: NCI-H522
[34] = tested on: NCI/ADR-RES
[35] = tested on: OVCAR-3
[36] = tested on: OVCAR-4
[37] = tested on: OVCAR-5
[38] = tested on: OVCAR-8
[39] = tested on: PC-3
[40] = tested on: RPMI-8226
[41] = tested on: RXF 393
[42] = tested on: SF-268
[43] = tested on: SF-295
[44] = tested on: SF-539
[45] = tested on: SK-MEL-28
[46] = tested on: SK-MEL-2
[47] = tested on: SK-MEL-5
[48] = tested on: SK-OV-3
[49] = tested on: SN12C
[50] = tested on: SNB-19
[51] = tested on: SNB-75
[52] = tested on: SR
[53] = tested on: SW-620
[54] = tested on: T47D
[55] = tested on: TK-10
[56] = tested on: U-251
[57] = tested on: UACC-257
[58] = tested on: UO-31
[59] = tested on: UACC-62

Measured: GI50

COC(=O)CCC(C)[C@H]1CCC2C3C(C[C@H](OC(C)=O)[C@@]21C)[C@@]1(C)CCC2(C[C@H]1C[C@H]3OC(C)=O)OOC1(CCCCC1)OO2 (some centres not stated)
active: [16] 1.02 µM
inactive: [1] 15.1 µM | [2] > 100 µM | [3] 11.3 µM | [4] 11.2 µM | [5] 40.6 µM | [6] 41.1 µM | [7] 4.27 µM | [8] 24.7 µM | [9] 41.5 µM | [10] 4.04 µM | [11] 28.3 µM | [12] 5.58 µM | [14] 7.26 µM | [15] 2.99 µM | [17] 41.9 µM | [18] 12 µM | [19] 5.2 µM | [20] 10.3 µM | [21] 23.6 µM | [22] 11.5 µM | [23] 15.5 µM | [24] 22.3 µM | [25] 18 µM | [26] 36.2 µM | [27] 33.9 µM | [28] 17.2 µM | [29] 36.4 µM | [30] 17.7 µM | [31] 12.7 µM | [32] 10.8 µM | [33] 9.33 µM | [34] 49.2 µM | [35] 40.5 µM | [36] 15.8 µM | [37] 43.5 µM | [38] 17.6 µM | [39] 5.97 µM | [40] 1.99 µM | [41] 38.7 µM | [42] 25 µM | [43] 20.7 µM | [44] 60.1 µM | [45] > 100 µM | [46] 52.7 µM | [47] 19.4 µM | [48] 54.5 µM | [49] 36.6 µM | [50] 42.2 µM | [51] 21.2 µM | [52] 4.26 µM | [53] 33.3 µM | [54] 65.9 µM | [55] > 100 µM | [56] 12.7 µM | [57] 19.1 µM | [58] 5.73 µM
21.8 µM: [13]

CC(=O)C(=[N+]=[N-])C(=O)NCC#N
active: [51] 0.441 µM
inactive: [1] > 10 µM | [2] > 10 µM | [3] > 10 µM | [4] > 10 µM | [5] > 10 µM | [6] > 10 µM | [7] > 10 µM | [8] > 10 µM | [9] > 10 µM | [10] > 10 µM | [11] > 10 µM | [12] > 10 µM | [14] > 10 µM | [15] > 10 µM | [16] > 10 µM | [17] > 10 µM | [18] > 10 µM | [19] > 10 µM | [20] > 10 µM | [21] 6.93 µM | [22] > 10 µM | [23] > 10 µM | [24] > 10 µM | [25] > 10 µM | [26] > 10 µM | [27] > 10 µM | [28] > 10 µM | [29] > 10 µM | [30] > 10 µM | [31] > 10 µM | [32] > 10 µM | [33] > 10 µM | [34] > 10 µM | [35] > 10 µM | [36] > 10 µM | [37] > 10 µM | [38] > 10 µM | [39] > 10 µM | [40] > 10 µM | [41] > 10 µM | [42] > 10 µM | [43] > 10 µM | [44] > 10 µM | [45] > 10 µM | [46] > 10 µM | [47] > 10 µM | [48] > 10 µM | [49] > 10 µM | [50] > 10 µM | [52] > 10 µM | [53] > 10 µM | [54] > 10 µM | [55] > 10 µM | [56] > 10 µM | [57] > 10 µM | [59] > 10 µM | [58] > 10 µM
> 10 µM: [13]

— ChEMBL document CHEMBL1201862, “PubChem BioAssay data set” (2004)
